Experiments:
[1] = Perceived sweetness intensity (SEV, sucrose equivalent value) of aqueous test samples; assay type: in vivo; settings: sucrose equivalent value (SEV 1 = 1% sucrose solution); solution in reverse osmosis water
Description: In some aspects, minor steviol glycosides can also have specific sensory attributes related to sweetness intensity. Perceived sweetness intensity can be reported as SEV (sucrose equivalent value) with increasing sweetness intensity corresponding to higher SEV. A SEV of 1 corresponds to a 1% sucrose solution, a SEV of 2 corresponds to a 2% sucrose solution, and so on. While perception of sweetness intensity generally increases as the concentration of the minor steviol glycoside increases, the perceived sweetness intensity can reach a plateau despite increasing amounts of the minor steviol glycoside. […]
As a further example, sweetness intensity of the solutions can be tested by a panel of at least four individuals that are experienced in tasting steviol glycoside compositions. […] The panelists also can taste the standard range of 1%, 2%, 3%, 4%, 5%, 6%, 7%, 8%, 9%, 10%, 11%, 12%, 13%, and 14% sucrose solutions ad libitum between tasting test solutions to ensure an accurate match to their recorded SEV values with the standard sucrose solutions. […]
A mixture of monocaffeoylquinic acid and dicaffeoylquinic acid was obtained from yerba mate to provide the sensory modifier in acid form. […] The resulting samples were freeze-dried to provide sensory modifier (SM) in ready-to-use, powder-form. […]

[2] = Roundtable sensory panel of at least four experienced individuals, aqueous test samples (Example 1); assay type: in vivo; design: key to Spiky-Rounded: 0—like Reb M/N (spiky); 1—mostly spiky, some rounded; 2—mostly rounded, some spiky; 3—rounded; key to Sweet Linger / Tea/floral/green / Bitter / Typical Reb M/N Attributes (astringency, metallic, powdery, numbing, vapory): 0—none,; 1—trace/faint; 2—slight; 3—moderate; 4—definite; 5—strong; 6—extreme, typical Reb M/N; key to Mouthfeel: 0—water; 1—sucrosey; 2—syrupy; settings: solution in reverse osmosis water
Experimental: Solutions were prepared which contained either a steviol glycoside component alone, for use as a control sample, or a steviol glycoside component and sensory modifier in a 2:1 molar ratio, which also corresponds to a 2:1 weight ratio. Solutions were prepared by dissolving the steviol glycoside components and sensory modifiers into reverse osmosis water at the indicated concentrations and/or ratios.
Assays were carried out to characterize the sensory attributes of steviol glycoside compositions having various salt fractions of sensory modifier. Sensory attributes of the solutions were tested by a panel of at least four individuals that are experienced in tasting steviol glycoside compositions. The experienced panelists used a roundtable methodology to assess each sweetness attribute. To test each solution, the experienced panelists dispensed approximately 2 mL of each solution into their own mouths by transfer pipet, dispersed the solution by moving their tongues, and recorded a value for the particular sweetness attribute being tested. Between tasting solutions, the panelists were able to cleanse their palates with water. For each sweetness attribute, the panelists agreed on a descriptive scale with relative intensities assigned for each sweetness attribute and then recorded the values for each sweetness attribute against this.
A mixture of monocaffeoylquinic acid and dicaffeoylquinic acid was obtained from yerba mate to provide the sensory modifier in acid form. Separately from the steviol glycoside component, the mixture of monocaffeoylquinic acid and dicaffeoylquinic acid was adjusted with sodium hydroxide or potassium hydroxide to obtain sodium salts or potassium salts (each corresponding to 100% salt form). The resulting samples were freeze-dried to provide sensory modifier (SM) in ready-to-use, powder-form. A series of samples were prepared from the sensory modifier. For each sample, the final concentration of sensory modifiers was 470-500 ppm (wt/wt), including the contribution of salt mass. Steviol Glycoside Component Examples A and B were used alone as a control sample and also used as the starting point for the sensory modified samples.
For each sample, the flavor profile was compared to the steviol glycoside solution alone as well as to the sample with differing salt composition.

[3] = cited from earlier work

Compound	SEV [1]	Mouthfeel ([2]; panel score 0-2)	Spiky-Rounded ([2]; panel score 0-3)	Tea/floral/green ([2]; panel score 0-5)	Bitter ([2]; panel score 0-6)	Sweet Linger ([2]; panel score 0-6)	Typical Reb M/N Attributes (astringency, metallic, powdery, numbing, vapory) ([2]; panel score 0-6)	pKa [3]
C=C1C[C@@]23CC[C@H]4[C@@](C)(CCC[C@@]4(C)C(=O)O[C@@H]4O[C@H](CO)[C@@H](O)[C@H](O[C@@H]5O[C@H](CO)[C@@H](O)[C@H](O)[C@H]5O)[C@H]4O[C@@H]4O[C@H](CO)[C@@H](O)[C@H](O)[C@H]4O)[C@@H]2CC[C@]1(O[C@@H]1O[C@H](CO)[C@@H](O)[C@H](O[C@@H]2O[C@H](CO)[C@@H](O)[C@H](O)[C@H]2O)[C@H]1O[C@@H]1O[C@H](CO)[C@@H](O)[C@H](O)[C@H]1O)C3 [Component Example A, rebaudioside M]	9.5	0	0	0	5	4	4	
O=C(O)[C@]1(O)C[C@@H](O)[C@@H](O)[C@H](O)C1 [quinic acid, D-(−)-quinic acid]								around 3.46
